In PubChem BioAssay AID179 (DTP/NCI, 2004):
The source made the active and inactive calls.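 The calls were made as follows: active = compounds giving half or more protection of infected cells from virus-caused growth loss, again on retest; inactive = the rest.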 Where a SMILES comes first, the peptide text is derived from it.

Tested on: CEM cells HIV-1 protection, formazan growth assay
Assay: NCI AIDS Antiviral Assay
Conditions: for IC50: measured here: growth of uninfected CEM cells
Summary of the method: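 Screen of anti-HIV-1 activity in human CEM cells using a formazan-based growth measurement at five drug concentrations. Hits with 50% or greater protection were repeated, and confirmation required reproducible complete protection.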

Row | Structure (SMILES) | EC50 [µM] | IC50 [µM] | outcome
1 | CCC(C)C(NC(=O)C(N)CCCCN)C(=O)NC(CCC(=O)O)C(=O)NC(CO)C(=O)NC(C)C(=O)NC(C(=O)NC(CC(N)=O)C(=O)NC(CC(C)C)C(=O)NC(CO)C(=O)NC(CCC(N)=O)C(=O)O)C(C)O (stereo not given) (H-KIESATNLSQ-OH; configuration not given here) | > 57.5 | > 57.5 | –
2 | COc1ccc(C(N)=O)cc1N=NN(C)C | > 1120 | 501 | –
3 | CCN(CC)S(=O)(=O)c1ccc(Nc2nc(Cl)nc(Cl)n2)cc1 | > 200 | > 200 | –
4 | COc1ccc(N2C(=O)c3cc(C)cnc3S2(=O)=O)cc1 | 141 | > 200 | –
5 | COCC(C)(COP(=O)(N1CCOCC1)N1CCOCC1)CC(C)COP(=O)(N1CCOCC1)N1CCOCC1 (stereo not given) | – | – | inactive
6 | Cc1ccc(C(=O)N(Cc2ccccc2)Cc2ccccc2)cc1N=NN(C)C | > 9.77 | > 9.77 | –
7 | O=C(Cc1nc2ccc(C(=O)c3ccccc3)cc2[nH]c1=O)C(=O)Nc1ccc(Br)cc1 | > 14.8 | > 14.8 | –
8 | N#CC1=C(N)N(c2ccccc2)C(c2ccccc2)C1(C#N)C#N (stereo not given) | > 200 | 14.1 | –
9 | Cc1cc2c(C(C)C)c(O)c(O)c(C=NCCc3ccccc3)c2c(O)c1-c1c(C)cc2c(C(C)C)c(O)c(O)c(C=NCCc3ccccc3)c2c1O | > 200 | 8.71 | –
10 | COC(=O)c1cc(C(=CC(=O)OC(C)(C)C)c2cc(Cl)c(OC)c(C(=O)OC)c2)cc(Cl)c1OC | > 100 | 14.1 | –
11 | CCCCc1c2c(nc3c1CCCC3=O)CCCC2 | > 195 | 28.8 | –
12 | COCC(O)Cn1ccnc1[N+](=O)[O-] (stereo not given) | > 1230 | > 1230 | –
13 | CCOC(=O)/C(=C\c1ccc2ccccc2c1)P(=O)(OCC)OCC | > 186 | 5.37 | –
14 | O=c1c2sc3nc(NCCN4CCCCC4)ncc3c2ncn1-c1ccccc1 | > 200 | 117 | –
15 | CC(C)=CC(=O)N1CCN(C(=O)C=C(C)C)CC1 | > 501 | > 501 | –
16 | C[n+]1ccc(-c2c3nc(c(-c4cc[n+](C)cc4)c4ccc([n-]4)c(-c4cc[n+](C)cc4)c4nc(c(-c5cc[n+](C)cc5)c5ccc2[n-]5)C=C4)C=C3)cc1.[I-].[Zn+2] | > 72.4 | 14.1 | –
17 | CC(C)(C)c1c(C(C)(C)C)c(=O)c1=O | > 200 | > 200 | –
18 | C1CCCCc2nc3c(nc2CCC1)c1nc2c(nc1c1nc4c(nc31)CCCCCCCC4)CCCCCCCC2 | – | – | inactive
19 | COc1ccccc1/C=C1\C(=O)N(C(=O)c2ccc(NC(C)=O)cc2)N=C1C | > 19.1 | > 19.1 | –
20 | CCCCc1ccc(Nc2nc3c(ncn3C3OC(COC(C)=O)C(OC(C)=O)C3OC(C)=O)c(=O)[nH]2)cc1 (stereo not given) | > 200 | 11.7 | –
21 | COc1cccc(N2C(=O)C3C4C=C5c6ccccc6N(c6ccccc6)C5(C3C2=O)[C@H]2C(=O)N(c3cccc(OC)c3)C(=O)[C@@H]42)c1 (stereo not given in full) | > 4.37 | > 4.37 | –
22 | COc1ccc2c(c1)CCN1C3=C(CCC3)C(=O)C[C@@H]21 | – | – | inactive
23 | c1ccc2c(c1)SCCC2NC1=NCCO1 (stereo not given) | > 200 | 162 | –
24 | O=c1cc(-c2ccccc2)oc2c(-c3cc(Cl)cc4c(=O)cc(-c5ccccc5)oc34)cc(Cl)cc12 | > 200 | 38.9 | –
25 | Nc1nc(N)c(-c2cccc(C(F)(F)F)c2)c(Cc2cccc(C(F)(F)F)c2)n1 | > 20 | 0.759 | –
26 | CC(=O)OCSc1ncnc2c1ncn2CN1CCOCC1 | > 776 | 0.575 | –
27 | CC1(CC(=O)O)OC2CCCCCC2O1 (stereo not given) (tested in a mixture with another compound) | – | – | inactive
28 | Cc1cc(S(=O)(=O)Nc2n[nH]c(Nc3ccccc3)n2)c(S)cc1Cl | 170 | 275 | –
29 | O=C(Nc1cccc(NC(=O)C(=O)C2CCC3=C(Sc4ccccc4N3)C2=O)n1)C(=O)C1CCC2=C(Sc3ccccc3N2)C1=O (stereo not given) | > 75.9 | 63.1 | –
30 | COC1/C=C\C=C(/C)C(=O)NC2=CC(=O)C(NC3CC3)=C(CC(C)CC(OC)C(O)C(C)/C=C(/C)C1OC(N)=O)C2=O (stereo not given) | – | – | inactive
